What was measured:
[1] = test system: melanoma cell line HTB 63; assay: Cell migration assay, melanoma cell line HTB 63; type: cell-based, human
Experimental: 9B. […] All error bars in this figure indicate the standard error of the mean for nine replicates. The addition of LPA to the experimental groups containing inhibitors (LPA rescue) completely abrogated the small molecule inhibitory effect on cell motility (see discussion). […] Cell culture: Human melanoma cells, A2058 (ATCC), were grown in Dulbecco's Modified Eagle's Medium (DMEM) (Gibco), MeI 28 (ATCC), YUSAC2 (Yale University) and MeI-888 (Yale University) were grown in OptiMEM media (Gibco), and HTB 63 (ATCC) were grown in McKoy's 5a medium (ATCC). Human breast adenocarcinoma cells, MDA-MB-231(ATCC) and ovarian carcinoma cells […] (Gil Mor, Yale University) were grown in RPMI-1640 (Gibco). All cell media was supplemented with 10% (v/v) fetal calf serum (FCS) (Gibco) and 1% (v/v) L-glutamine (Gibco) and grown at 37° C. in a humidified atmosphere containing 5% CO2. Cell motility assays: […] Chemo-attractant (ATX ±inhibitor) and/or controls were placed in the lower half of the chamber, and the cells in the upper chamber. […] Non-migrating cells were removed from the membrane by scraping the top surface. The cells were quantitated by counting the cell number per high powered field in the various wells. Treatments were compared using a chi squared test.

[2] = oral doses of 50 mg/kg in 3 divided alternate daily doses for 5 days; rabbits, dogs, and humans; cited from earlier work
[3] = oral, ref. [43]; cited from earlier work
ATX lyso-PLD activity = molecular target: T1, ATX lyso-PLD activity (Homo sapiens, UniProt Q13822); assay: Time course assay of ATX lyso-PLD activity (FS-3 fluorescent product) with or without 10 μM compound over 30 minutes; type: biochemical; conditions: 10 μM inhibitor, 30 minute interval, 300 nM ATX
T1 construct: consistent with a mature, glycosylated form of the enzyme; TEV cleavage site (C); 9-His (C); 6-His (C); made in house; host or cells: High Five insect cells (baculovirus, p-DEST-8)
Experimental: C. Structure of hexachlorophene, merbromin. Bithionol and their analogs -2,2′-Methylenebis(4-chlorophenol), Eosin Y and RJC 03297, respectively. D. Structure of NSC 48300 and its analogs. […] The assay conditions are 300 nM ATX in the presence or absence of 10 μM compound over 30 minutes.
Inhibitor screen: High throughput screens were performed against two libraries: the GenPlus library of 960 compounds (NINDS Custom Collection, MicroSource Discovery systems) and the NCI Diversity Set (1990 compounds, see http://dtp.nci.nih.gov/branches/dscb/repo_open.html). The screens were performed at the Yale Center for Chemical Genomics utilizing a Tecan Aquarius robot in combination with an Aquarius liquid handler and a Freedom EVO Workstation. A V&P Scientific 384 pin tool transferred small molecules (10 mM stock) from library plates into the optically clear, 384 well assay plates, and an Aquarius liquid handling robot transferred protein into the individual wells. The assays were performed in a total volume of 50 μL in assay buffer (50 mM Tris, 140 mM NaCl, 1 mM MgCl2, and 5 mM CaCl2, pH 8.0). Absorbance of p-nitrophenylate, the product of ATX's PDE activity with pNP-TMP (discussed below) was measured at 405 nm over a period of 12 hours. To monitor lysophospholipase-D activity, the fluorescence of FS-3 (625 nM or 4 μM) was monitored (λex=480 nm, λem=535 nm) in assay buffer over a period of 30 minutes in the presence of 300 nM ATX and 10 μM compound. The assay was evaluated using a statistical Z′ analysis, a quantitative measure to determine assay robustness for single point analysis on a high throughput screening platform. The Z′ analysis was performed from 32 maximum control values (c+) and 32 minimum controls (c−) on each plate. Assays consistently performed with Z′ factors of 0.75-0.85, higher than the minimum 0.5 considered robust.
Inhibition of ATX lyso-PLD activity by several NSC48300 analogs was qualitatively compared in a time course assay by measuring the production of fluorescent product in the presence or absence of 10 µM inhibitor over a 30 minute interval.

Oc1c(Cl)cc(Cl)cc1Sc1cc(Cl)cc(Cl)c1O [Bithionol]
inhibition of ATX-stimulated HTB63 cell migration ([1]; 50 nM ATX, 3 hours): can be inhibited | LPA rescue of inhibited HTB63 cell migration ([1]; excess LPA (75 nM)): rescued by excess LPA | serum levels [2]: 140 to 550 µM | dose that can be safely dosed in humans [3]: 25 mg kg^−1 body weight per day

O=[As](O)(O)c1ccc(Cc2ccc([As](=O)(O)O)cc2)cc1 [NSC 48300]
less product formation when compared to the enzyme alone (ATX lyso-PLD activity): 98.0%

From patent US20110110886A1, “SMALL MOLECULE INHIBITORS OF AUTOTAXIN AND METHODS OF USE” (Yale University, priority 2008, published 2011)
